pIC50: −log10 of the molar value. Like-named read-outs stand apart in the source and are kept apart here.
Assays:
[1] = Paclitaxel solubility in permeation enhancers; assay type: physicochemical; settings: 37° C.
Method: The following permeation enhancers were examined: Transcutol®, ethanol, propylene glycol, isopropyl myristate, oleic acid and Transcutol:isopropyl myristate (9:1 v:v). […] A sample of 0.5 ml of the fluid from each vial was centrifuged at 37° C. and 13000 rpm for 2 minutes. Aliquots (0.1 ml) of supernatant from the centrifuge tubes were transferred to volumetric flasks and diluted with methanol. Paclitaxel content was assessed by high pressure liquid chromatography (HPLC).

[2] = Stability of paclitaxel in cyclodextrin solutions; assay type: physicochemical
Description: The solutions containing 20% HPβCD or HPγCD had pH values of 3.9 and 5.2, respectively.

synovial fibroblasts = assay: Synoviocyte proliferation (trypan blue dye exclusion); settings: 24 hours
neutrophils = assay: Neutrophil chemiluminescence assay (opsonized CPPD crystals or zymosan); assay type: cell-based, human; settings: Homo sapiens, Neutrophil, 28 μM, read-out: inhibition of the peak chemiluminescence response
Method: All experiments that studied neutrophil responses to crystals or zymosan in the presence of paclitaxel were performed using plasma opsonized CPPD or zymosan. Opsonization of crystals or zymosan was done with 50% heparinized plasma at a concentration of 75 mg of CPPD or 12 mg of zymosan per ml of 50% plasma Crystals or zymosan were incubated with plasma for 30 minutes at 37° C. and then washed in excess HBSS.
Neutrophil viability and purity was always greater than 90%.
A stock solution of LY290181 at 100 μM in HBSS was freshly prepared.
All chemiluminescence studies were performed at a cell concentration of 5,000,000 cells/ml in HBSS with CPPD (50 mg/ml). In all experiments 0.5 ml of cells was added to 25 mg of CPPD or 0.5 mg of zymosan in 1.5 ml capped Eppendorf tubes. 10 μl of luminol dissolved in 25% DMSO in HBSS was added to a final concentration of 1 μM and the samples were mixed to initiate neutrophil activation by the crystals or zymosan. Chemiluminescence was monitored using an LKB Luminometer (Model 1250) at 37° C. for 20 minutes with shaking immediately prior to measurements to resuspend the crystals or zymosan. Control tubes contained cells, drug and luminol (crystals absent).

[3] = system: chick chorioallantoic membrane (CAM) vasculature; settings: for CAM vasculature: 2-day exposure
stromelysin (MMP-3) mRNA = assay: IL-1 induced stromelysin mRNA expression in chondrocytes (Northern blot); assay type: cell-based
Description: The blots were subsequently stripped and reprobed with ^32P-radiolabeled rat GAPDH cDNA, which was used as a housekeeping gene. […] The MMP-1 and MMP-3 expression levels were normalized with GAPDH.

human keratinocytes = assay: Keratinocyte viable cell number (trypan blue exclusion); assay type: cell-based; settings: 4 days
Method: Following incubation, cells were collected and counted by the trypan blue exclusion assay.

MS symptoms = assay: Demyelinating DM20 (ND4) transgenic mouse model of MS; assay type: in vivo; set-up: key to Seizures / Shaking / Hind Limb Paralysis / Head Tremors: 1+: slight but definite signs; 2+: increase in severity; 3+: signs worsened with limited movement; 4+: very severe signs with loss of motor control (moribund); settings: micellar paclitaxel 2.5 mg/kg s.c. 3 times per week, 7 injections
Description: These transgenic mice contain 70 copies of the transgene DM20, a myelin proteolipid. Clinically, the animals appear normal up to 3 months of age. After 3 months, evidence of neurological pathology, such as seizures, shaking, hind limb mobility, unsteadiness of gait, limp tail, wobbly gait and reduction in the degree of activity, appear and progressively increase in severity until the animals die between 6 and 8 months of age.
For both of these sets of experiments, dosing was initiated at the clinical onset of disease (approximately 3 to 4 months of age).
Animals were injected with the first dose once the initial signs of MS had reached a score of 1+ for the symptom categories described. The clinical scores and body weight were determined on each injection day and continued three times a week until the end of the study period (6 months of age). Scoring was based on a 1+ to 4+ system, whereby 1+=slight but definite signs, 2+=increase in severity, 3+=signs worsened with limited movement and 4+=very severe signs with loss of motor control (moribund).
Three additional transgenic mice were used as controls and received an equivalent dose of PBS. […] Furthermore, four normal mice were used as controls and administered equivalent volumes of PBS.

synoviocytes = assay: Proliferation assay (MTT); assay type: cell-based; settings: 24-hour exposure
Method: On day one, 5-10×10^4 synoviocytes were plated per well (96-well plate). Column #1 was kept free of cells (blank). On day 2, the plate was flicked to discard the medium and 200 μl of medium containing various concentrations of drug was added. […] There was no drug added to columns #1 and #2 (blank and untreated control, respectively). The medium containing the drug was discarded and 200 μl of fresh complete medium was added. The cells were then left to grow for an additional 3 to 4 days. On day five, 20 μl of dimethylthiazol diphenyltetrazolium bromide salt (MTT) (5 mg/ml PBS) was added and allowed to incubate for 4 hours at 37° C. The medium was decanted and 200 μl of DMSO was added.
The data were expressed as the % of survival which was obtained by dividing the number of cells remaining after treatment by the number of cells in the untreated control column #2 (the number of cells was obtained from a standard done prior to the assay).

EOMA cells = assay: Endothelial cell apoptosis (DAPI staining); assay type: cell-based; settings: 24 hours
Method: The cells were fixed with 3.7% formaldehyde in phosphate buffered saline for 20 minutes, stained with DAPI (4′-6-diaminido-2-phenylindole), 1 ug/ml, and examined with a 40×objective under epifluorescent optics. Apoptotic cells were evaluated by scoring cells for fragmented nuclei and condensed chromatin.

[4] = transgenic mice, 6 months of age

## CC(=O)O[C@H]1C(=O)[C@@]2(C)[C@H]([C@H](OC(=O)c3ccccc3)[C@]3(O)C[C@H](OC(=O)[C@H](O)[C@@H](NC(=O)c4ccccc4)c4ccccc4)C(C)=C1C3(C)C)[C@]1(OC(C)=O)CO[C@@H]1C[C@@H]2O [paclitaxel]
[1]; Ethanol
  Paclitaxel concentration at saturation, Average: 68.91 mg/mL
[1]; Isopropyl myristate
  Paclitaxel concentration at saturation, Average: 0.43 mg/mL
[1]; Oleic acid
  Paclitaxel concentration at saturation, Average: 0.31 mg/mL
[1]; Propylene glycol
  Paclitaxel concentration at saturation, Average: 21.56 mg/mL
[1]; Transcutol
  Paclitaxel concentration at saturation, Average: 346.9 mg/mL
[1]; Transcutol, listed as Paclitaxel
  Paclitaxel concentration at saturation, Average: 346.85 mg/mL
[1]; Transcutol:isopropyl myristate (9:1 v:v)
  Paclitaxel concentration at saturation, Average: 353.9 mg/mL
[1]; Transcutol:isopropyl myristate (9:1 v:v), listed as Paclitaxel
  Paclitaxel concentration at saturation, Average: 353.93 mg/mL
[2]; 1 μg/ml paclitaxel, 1% HPβ-CD, 55° C.
  degradation rate constant k: 0.00338 h⁻¹
[2]; 10% HPβ-CD (FIG. 42: 20 μg/ml, 37° C., pH 3.7)
  degradation rate constant: 0.00178 h⁻¹
[2]; 10% HPγ-CD (FIG. 42: 20 μg/ml, 37° C., pH 4.9)
  degradation rate constant: 0.00096 h⁻¹
Synovial fibroblasts; 10^−6 M and 10^−5 M
  toxicity to synovial fibroblasts: toxic
Synovial fibroblasts
  inhibiting proliferation of the synoviocytes at concentrations as low as: 10^−7 M
neutrophils; plasma opsonized CPPD
  inhibition at 28 µM: 52%
neutrophils; plasma opsonized zymosan
  inhibition at 28 µM: 45%
[3]; 5% paclitaxel-loaded PCL microspheres, 1 mg
  CAM vasculature: marked vascular regression and zones which were devoid of a capillary network
[3]; 48 hour exposure to 10 μg paclitaxel per 10 ml of methylcellulose
  diameter of avascular areas: approximately 6 mm
[3]; after application
  avascular zones did not revascularize for: at least 7 days
  inhibition of angiogenesis occurs as early as: 9 h
[3]; maximal avascular zone within 48 hours depending on concentration, methylcellulose disk
  avascular gradient scale: 3
[3]; micellar solution (10 ul), 10%
  Inhibition/n: too toxic
[3]; paclitaxel-gelatin-PCL paste, 1 mg pieces
  CAM vasculature: consistently showed vascular regression and zones which lacked a capillary network
[3]; within 48 hours depending on concentration, methylcellulose disk
  maximal avascular zone diameter: 6 mm
Stromelysin (MMP-3) mRNA
  concentration inhibiting stromelysin expression in vitro: 10^−6 M
Stromelysin (MMP-3) mRNA; 10^−5 M, pretreatment 24 hours, IL-1
  stromelysin mRNA levels: complete inhibition
Human keratinocytes; 10^−7 M or higher
  cell viability: significant drop in cell viability
Human keratinocytes; 10^−8 M
  cell viability: 87 % of untreated controls
Human keratinocytes; 10^−9 M
  cell viability: greater than 100 % of untreated controls
MS symptoms; normal mice
  Head Tremors: 0
  Hind Limb Paralysis: 0
  Seizures: 0
  Shaking: 0
  Weight Change: −0-5%
MS symptoms; transgenic mice
  Weight Change: +5-10%
MS symptoms; [4]
  Head Tremors: 1+
  Hind Limb Paralysis: 1+
  Seizures: 1+
  Shaking: 1+
synoviocytes
  pIC50: ~7.52
EOMA cells
  concentrations inducing endothelial cell apoptosis: greater than 10^−8 M
